Laboratory results taken from US20260199492A1, “PSD-95 DOMAIN INHIBITOR, AND PREPARATION METHOD THEREFOR AND USE THEREOF” (SHENZHEN SALUBRIS PHARMACEUTICALS CO., LTD, priority 2023, published 2026).
pIC50: −log10 of the molar value. Square brackets hold non-standard residues; d marks the D form. Ends that are not written are not given here. Peptide text beside a SMILES is read from it.

Columns and labels:
PDZ1-2 of PSD95 = PDZ1-2 of PSD95 (Homo sapiens, UniProt P78352); test: Fluorescence polarization competition binding assay of PDZ1-2 with probe 5-FAM-NA-1
PDZ1-2 of PSD95, sequence (P78352 61-249 limits assumed): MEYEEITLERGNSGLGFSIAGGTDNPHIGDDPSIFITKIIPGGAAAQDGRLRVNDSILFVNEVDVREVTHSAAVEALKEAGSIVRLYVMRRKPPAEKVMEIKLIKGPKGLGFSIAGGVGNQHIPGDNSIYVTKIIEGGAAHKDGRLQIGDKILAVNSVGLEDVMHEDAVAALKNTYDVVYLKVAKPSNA

[1] = Toxicological experiment: serum UREA and CREA after 5 days of i.v. dosing; type: in vivo, SD rats; settings: male SD rats, 30 mg/kg i.v. once daily for 5 days, serum 2 h after dosing on day 5
Protocol: The compounds of Examples 1-8 were accurately weighed into suitable EP tubes, and the vehicle (saline) was added to formulate a solution of a concentration of 15 mg/mL. The solution was filtered using a 0.2 μm filter for future use.
A total of 18 male SD rats of 6-7 weeks of age were used for test. After the animal quarantine and acclimatization period, the animals were randomly divided into 6 groups according to their body weights measured before grouping, vehicle control group (saline) as well as example compounds groups, 3 animals/group. Using the above prepared solution, the animal was administered intravenously via the tail vein at a dosage of 30 mg/kg and a dosing volume of 2 mL/kg. The dosing volume for each animal was calculated according to the body weight. Administration was performed once daily for 5 consecutive days. After 2 h of administration on day 5, the animals were deeply anesthetized by intraperitoneal injection of sodium pentobarbital. The thoracic cavity was opened, and blood was collected from the abdominal aorta into blood collection tubes containing inert separation gel and coagulant. The serum was collected by centrifugation (4000 rpm, 10 min) after about 1 h of resting. The concentrations of UREA and CREA in the serum were detected using a biochemical analyzer. The percentage change of each example compound relative to the vehicle control group was calculated using the formula: %=(Concentration of example compound−Concentration of vehicle control group)/Concentration of vehicle control group.

[2] = Tissue distribution experiment of TAMRA-labeled compounds; type: in vivo; settings: TAMRA-labeled compound, male Balb/c mice, 3 nmol/g tail vein injection, 45 min circulation, after perfusion
Protocol: The TAMRA-labeled example compounds were dissolved in saline to prepare a solution with a concentration of 600 μM/mL. A 100 μL of the above prepared solution was administered, at a dose of 3 nmol/g, to 6-week-old male Balb/c mice (18-22 g) via tail vein injection. After 45 min of circulation, the animals were deeply anesthetized by intraperitoneal injection of sodium pentobarbital. The thoracic cavity was opened, and the mice were subjected to cardiac perfusion using 0.01 M PBS (pH 7.4), and the brains, kidneys, and livers were collected at the end of perfusion. The harvested tissues were immediately placed on ice and stored at −80° C. […] The supernatant was transferred to a black 96-well plate with a clear bottom, and the TAMRA-peptide was quantified using a PHERAstar FSX plate reader (BMG LABTECH, Ortenberg, Germany). The excitation/emission wavelengths were set at 540/580 nm. The corresponding peptide concentration in the tissues was calculated using a standard curve (blank tissue mixed with TAMRA-peptide, concentration range of 0-1000 nM).

[3] = In vitro plasma stability experiment (compounds), without or with tPA; settings: human, With tPA T1/2, human plasma, 37° C., initial concentration 10 μM, with rt-PA […]
Protocol: (§1) • Plasma: Human plasma is commercially available. • Reagents: DMSO (dimethyl sulfoxide), disodium hydrogen phosphate, sodium dihydrogen phosphate, methanol, formic acid, and propranolol (internal standard) are commercially available. • Instrument: AB SCIEX QTRAP 5500+.
(§2) 5 μL of stock solution (10 mM) was diluted with 495 μL of 0.05 M sodium phosphate buffer to 100 μM of dosing solution. The final concentration of tested drug for incubation was 10 μM.
(§3) A certain volume (e.g., 27 μL or 24 μL) of plasma was added into a 96-well plate. An appropriate volume of the internal standard working solution (e.g., 150 μL) was immediately added to precipitate. […] This was performed in duplicate.
(§4) Then, an appropriate amount of plasma (e.g., 27 μL or 24 μL) was added at the designed time points (e.g., 5 min, 15 min, 30 min, 60 min, and 120 min, etc.), and the parallel replicate wells were performed at each time point. […] The reaction was terminated by adding an appropriate amount of internal standard working solution (e.g., 150 μL) at the end of the time, and the mixture was mixed thoroughly.
(§5) The mixture was centrifuged at 4000 rpm for 15 min. A certain amount of the supernatant was taken, mixed with a certain amount of water, and then subjected to LC/MS/MS analysis. LC-MS detection conditions were as follows: • Chromatography column: YMC Triart C18, 50*3.0 mm, 2.1 μm. • Mobile phase: Gradient elution was performed using water (0.1% formic acid)-acetonitrile according to the table below.
(§6) The relative content of drug at each time point was calculated using the initial 0 point as 100%. The half-life of the drug was calculated by plotting “relative drug content” against “incubation time” using GraphPad Prism 5 software.

in vitro = settings: human, plasma
Protocol: as §1, §2, §3, §4, §5, §6

Row | Compound | pIC50 (PDZ1-2 of PSD95) | CREA, percentage change compared to vehicle control group [1] [%] | UREA, percentage change compared to vehicle control group [1] [%] | Mean tissue concentration, Brain [2] [nmol/g] | half-life at 10 μM [3] [min] | half-life (in vitro; With tPA T1/2) [h] | half-life (in vitro; Without tPA T1/2) [h]
1 | CC[C@H](C)[C@H](NC(=O)[C@H](CO)NC(=O)[C@H](CO)NC(=O)[C@H](CC(C)C)NC(=O)[C@@H](CCCCN)NC(=O)[C@H](CCCNC(=N)N)NC(=O)[C@@H](CCCNC(=N)N)NC(=O)[C@H](CCC(N)=O)NC(=O)[C@@H](CCCNC(=N)N)NC(=O)[C@H](CCCNC(=N)N)NC(=O)[C@H](CCCCN)NC(=O)[C@H](CCCCN)NC(=O)[C@@H](CCCNC(=N)N)NC(=O)CNC(=O)[C@@H](N)Cc1ccc(O)cc1)C(=O)N[C@@H](CCC(=O)O)C(=O)N[C@@H](CO)C(=O)N[C@@H](CC(=O)O)C(=O)N[C@H](C(=O)O)C(C)C [Compound 1] (H-YG[dR]KKR[dR]Q[dR]R[dK]LSSIESDV-OH; N-terminus and C-terminus assumed) | 4.83 | 216.9 | 206.9 | 5.9220 | – | – | –
2 | YGRKKRRQRRRKLSSIESDV [NA-1, reference compound] | – | – | – | 2.9115 | 3.61 | – | –
3 | CC[C@H](C)[C@H](NC(=O)[C@H](CO)NC(=O)[C@H](CO)NC(=O)[C@H](CC(C)C)NC(=O)[C@@H](CCCCN)NC(=O)[C@H](CCCNC(=N)N)NC(=O)[C@H](CCCNC(=N)N)NC(=O)[C@@H](CCCNC(=N)N)NC(=O)[C@H](CCC(=O)O)NC(=O)[C@@H](CCCNC(=N)N)NC(=O)[C@H](CCCNC(=N)N)NC(=O)[C@H](CCCCN)NC(=O)[C@H](CCCCN)NC(=O)[C@@H](CCCNC(=N)N)NC(=O)CNC(=O)[C@@H](N)Cc1ccc(O)cc1)C(=O)N[C@@H](CCC(=O)O)C(=O)N[C@@H](CO)C(=O)N[C@@H](CC(=O)O)C(=O)N[C@H](C(=O)O)C(C)C [Compound 15] (H-YG[dR]KKR[dR]E[dR]RR[dK]LSSIESDV-OH) | 4.95 | 90.8 | 88.6 | 4.4515 | – | > 33.3 | > 33.3
